The values that follow come from patent publication US5962531A, “5-aroylnaphthalene derivatives as anti-inflammatory agents” (Syntex (U.S.A.) Inc., priority 1998, dated 1999).

One assay concerns the target T1, COX I (Homo sapiens, UniProt P23219).
T1 construct: made in house; baculovirus-infected insect cells according to the cited Barnett et al. 1994 (own knowledge)
Nature of the assay: Inhibition of COX I in vitro (radiometric assay, partially purified enzyme). The format is biochemical. How it is done: (§1) The COX I and COX II inhibitory activity of compounds of this invention in vitro was determined using partially purified COX I and COX II enzymes, prepared as described in J. Barnett et. al., Biochim. Biophys.
(§2) COX I and COX II samples were diluted with Tris-HCl buffer (SOmM Tris-HCl, pH 7.9) containing 2 mM EDTA and 10% glycerol and reconstituted by incubating first with 2 mM phenol for 5 minutes and then with 1 micromolar hematin for an additional 5 minutes. 125 μl of the reconstituted COX I or COX II enzyme were preincubated for 10 minutes at room temperature in a shaking water bath with the compounds of the invention dissolved in 2-15 μl of DMSO or the carrier vehicles (control samples). The enzyme reaction was initiated by adding 25 μl of 1-[14 C]arachidonic acid (80,000-100,000 cpm/tube; 20 micromolar final concentration) and the reaction was allowed to continue for an additional 45 seconds. The reaction was terminated by adding 100 μl of 2N HCl and 750 μl water. An aliquot (950 μl) of the reaction mixture was loaded onto a 1 ml C18 Sep-Pak column (J. T. Baker, Phillipsburg, N.J.) which had been previously washed with 2-3 ml methanol and equilibrated with 5-6 ml distilled water. Oxygenated products were quantitatively eluted with 3 ml of acetonitrile/water/acetic acid (50:50:0.1, v/v) and the radioactivity in the eluate determined in a scintillation counter.

A further assay has as its target T2, COX II (Homo sapiens, UniProt P35354).
T2 construct: made in house; baculovirus-infected insect cells according to the cited Barnett et al. 1994 (own knowledge)
T2 sequence (P35354 18-604): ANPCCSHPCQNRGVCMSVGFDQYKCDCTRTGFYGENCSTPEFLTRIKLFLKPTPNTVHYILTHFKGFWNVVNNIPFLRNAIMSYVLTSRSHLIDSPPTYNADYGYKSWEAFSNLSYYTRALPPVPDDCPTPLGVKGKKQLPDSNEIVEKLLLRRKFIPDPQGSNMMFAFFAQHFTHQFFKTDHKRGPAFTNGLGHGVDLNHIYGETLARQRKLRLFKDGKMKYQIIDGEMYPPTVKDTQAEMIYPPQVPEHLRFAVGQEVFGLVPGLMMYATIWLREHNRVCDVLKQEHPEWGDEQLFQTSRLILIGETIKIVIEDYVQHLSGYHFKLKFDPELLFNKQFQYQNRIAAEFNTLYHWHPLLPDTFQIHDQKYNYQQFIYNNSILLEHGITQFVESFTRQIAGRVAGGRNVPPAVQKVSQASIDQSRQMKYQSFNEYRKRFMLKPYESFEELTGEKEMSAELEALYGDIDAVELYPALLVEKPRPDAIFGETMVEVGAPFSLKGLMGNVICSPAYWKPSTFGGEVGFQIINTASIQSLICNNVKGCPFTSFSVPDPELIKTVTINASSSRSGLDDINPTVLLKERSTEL
Nature of the assay: Inhibition of COX II in vitro (radiometric assay, partially purified enzyme). The format is biochemical. Here is the method:
as §1, §2

The test system of a further assay is PGE2. Nature of the assay: Inhibition of eicosanoid (prostaglandin E2) synthesis in vivo, carrageenan air-pouch model in rats. As to conditions: oral, male rats. Further details: species or system rat. How it is done:
In this assay, an air-pouch is created in the rat and the PGE2 levels in the air-pouch exudate are measured by enzyme immunoassay. Briefly, male rats were anesthetized using a 60:40 CO2 :O2 mixture and subsequently injected subcutaneously with 20 ml of sterilized air, under aseptic conditions, in the proximal area of the dorsum. This injection of sterile air causes the creation of a subcutaneous "air pouch". The next day, a further 10 ml of sterile air was injected into the previously formed pouch using the same technique. […] Control rats received vehicle alone. After 30 minutes, 5 ml of a 0.5% solution of carrageenan (Sigma, Lambda Type IV) was injected into the air pouch. The rats were euthanized 3 or 6 h after the compound administration. […] The total exudate volume was recorded, and the samples were analyzed for PGE2 and 6-keto PGF1 by ELISA (Titerzyme®, PerSeptive Diagnostics, Boston, Mass.) and TxB2 by radioimmuno assay (New England Nuclear Research, Boston, Mass., Catalog No. NEK-037), according to the manufacturer's directions.
The mean concentrations of PGE2 were calculated for each group. The anti-inflammatory activity of test materials is expressed as the percent inhibition of PGE2 formation in the test group relative to the control group.

Assay [1] deals with carrageenan-induced paw edema. Kind of assay: Inhibition of carrageenan-induced paw edema in the rat. The class given is in vivo. As to conditions: oral, female rats. How it is done: The anti-inflammatory activity of compounds of this invention was determined by measuring the inhibition of carrageenan-induced paw edema in the rat, using a modification of the method described in Winter C. A. et al., "Carrageenan-Induced Edema in Hind Paw of the Rat as an Assay for Anti-inflammatory Drugs" Proc. Soc. Exp. Biol. Med. 111, 544-547, (1962). This assay has been used as a primary in vivo screen for anti-inflammatoryactivity of most NSAIDs, and is considered predictive of human efficacy. Briefly, test materials were administered orally to female rats in a volume of 1 ml prepared as solutions or suspensions in an aqueous vehicle containing 0.9% sodium chloride, 0.5% sodium carboxymethyl-cellulose, 0.4% polysorbate 80, 0.9% benzyl alcohol and 97.3% distilled water. Control rats received vehicle alone. After 1 h 0.05 ml of a 0.5% solution of Carrageenan (Type IV Lambda, Sigma Chemical Co.) in 0.9% saline was injected into the subplantar region of the right hind paw. Three hours later the rats were euthanized in a carbon dioxide atmosphere; hind paws were removed by severing at the tatso-crural joint; and the left and right paws were weighed. The increase in weight of the right paw over the left paw was obtained for each animal and the mean increases were calculated for each group. The anti-inflammatory activity of the test materials is expressed as the percent inhibition of the increase in hind paw weight of the test group relative to the vehicle dosed control group.
The anti-inflammatory activities (expressed as % inhibition) of some of the compounds of the invention were: […]
(In the carrageenan paw model, swelling and tenderness develop within hours.)

T1 sequence (P23219 24-599): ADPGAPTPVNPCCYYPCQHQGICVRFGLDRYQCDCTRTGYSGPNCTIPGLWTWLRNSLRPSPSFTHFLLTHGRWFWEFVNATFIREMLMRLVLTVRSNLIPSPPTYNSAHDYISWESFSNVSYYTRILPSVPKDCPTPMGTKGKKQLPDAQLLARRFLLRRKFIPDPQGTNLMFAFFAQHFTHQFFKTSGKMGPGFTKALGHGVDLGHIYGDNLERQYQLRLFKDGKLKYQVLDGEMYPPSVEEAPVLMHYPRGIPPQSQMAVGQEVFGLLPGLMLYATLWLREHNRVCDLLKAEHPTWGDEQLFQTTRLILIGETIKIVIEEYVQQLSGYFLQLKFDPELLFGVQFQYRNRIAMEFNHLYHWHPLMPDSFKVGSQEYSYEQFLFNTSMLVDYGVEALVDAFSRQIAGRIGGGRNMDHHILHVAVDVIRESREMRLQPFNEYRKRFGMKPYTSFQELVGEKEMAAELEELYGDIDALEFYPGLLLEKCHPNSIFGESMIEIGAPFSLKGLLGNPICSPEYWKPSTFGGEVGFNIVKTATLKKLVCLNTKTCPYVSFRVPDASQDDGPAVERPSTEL

Consider `COc1ccc2cc(S(C)(=O)=O)ccc2c1C(=O)c1ccccc1` [compound 94, 5-benzoyl-6-methoxy-2-methylsulfonylnaphthalene], for which the IC50 against COX I turned out to be 805 µM; against COX II, 2.43 µM. Also, the “% Inhibition of air pouch PGE2 formation” value with PGE2 (10 mg/Kg) is given as 17.6%.
On to `CCOc1ccc2cc(S(N)(=O)=O)ccc2c1C(=O)c1ccc(F)cc1` [compound 5], for which the IC50 against COX I turned out to be 0.46 µM; at COX II, 0.56 µM. Besides, in assay [1] (30 mg/Kg), the “% Inhibition of paw edema” value is recorded as 27.49%.
On to `COc1ccc2cc(S(N)(=O)=O)ccc2c1C(=O)c1ccc(F)cc1` [compound 1, 5-(4-fluorobenzoyl)-6-methoxy-2-naphthalenesulfonamide], for which the IC50 against COX I was 20 µM; against COX II, 0.51 µM. The “% Inhibition of paw edema” value in assay [1] (10 mg/Kg) is 29.94%. Also, the “% Inhibition of air pouch PGE2 formation” value in the assay on PGE2 (10 mg/Kg) worked out at 92%.
Regarding `COc1ccc2cc(S(N)(=O)=O)ccc2c1C(=O)c1ccccc1` [compound 23, 5-benzoyl-6-methoxy-2-naphthalenesulfonamide], the “% Inhibition of air pouch PGE2 formation” value in the assay on PGE2 (10 mg/Kg) amounted to 70.7%.
For the molecule `COc1ccc2cc(S(N)(=O)=O)ccc2c1C(=O)c1ccc(F)cc1C(F)(F)F` [compound 42], the results for the IC50 on COX I and against COX II were 40.9 µM and 2 µM, respectively.
Turning to `CS(=O)(=O)c1ccc2c(C(=O)c3ccc(F)cc3)c(O)ccc2c1` [compound 92, 5-(4-fluorobenzoyl)-6-hydroxy-2-methylsulfonylnaphthalene], the IC50 against COX I stood at 646 µM; against COX II, 5.9 µM. For the same molecule, in assay [1] (30 mg/Kg), the “% Inhibition of paw edema” value is reported as 19.88%.
On the same counts, the results for `CS(=O)(=O)c1ccc2c(C(=O)c3ccccc3)c(O)ccc2c1` [compound 93, 5-benzoyl-6-hydroxy-2-methylsulfonylnaphthalene] are 436 µM, 7.84 µM and 6.25%.
Take `COc1ccc2cc(S(N)(=O)=O)ccc2c1C(=O)c1ccccc1F` [compound 14, 5-(2-fluorobenzoyl)-6-methoxy-2-naphthalenesulfonamide]: the IC50 against COX I amounted to 47.7 µM; against COX II it was 0.076 µM. Further, the “% Inhibition of air pouch PGE2 formation” value with PGE2 (10 mg/Kg) worked out at 58.8%.
As to `COc1ccc2cc(S(C)(=O)=O)ccc2c1C(=O)c1ccc(C)cc1` [compound 103], the IC50 stood at 97 µM against COX I and 1.5 µM against COX II.
On to `COc1ccc2cc(S(N)(=O)=O)ccc2c1C(=O)c1ccc(C)cc1` [compound 4, 5-(4-methylbenzoyl)-6-methoxy-2-naphthalenesulfonamide], for which the results for the IC50 at COX I and on COX II were 2.8 µM and 0.84 µM, respectively. In addition, the “% Inhibition of paw edema” value in assay [1] (10 mg/Kg) was 26.41%. In addition, the “% Inhibition of air pouch PGE2 formation” value in the assay with PGE2 (10 mg/Kg) was found to be 74.6%.
As for `N#Cc1ccc2cc(S(N)(=O)=O)ccc2c1C(=O)c1ccc(F)cc1` [compound 64, 5-(4-fluorobenzoyl)-6-cyano-2-naphthalenesulfonamide], the IC50 was determined as 0.9 µM at COX I and 0.7 µM against COX II. Further, the “% Inhibition of paw edema” value in assay [1] (6 mg/Kg) amounted to 30%. Further, the “% Inhibition of air pouch PGE2 formation” value in the assay on PGE2 (0.5 mg/Kg) is listed as 50%.
For the molecule `COc1ccc2cc(S(N)(=O)=O)ccc2c1C(=O)c1ccc(F)cc1F` [compound 20], the concentration for half-maximal inhibition (IC50) was determined as 6 µM at COX I and 0.45 µM against COX II. Further, the “% Inhibition of paw edema” value in assay [1] (30 mg/Kg) is listed as 33.85%. The “% Inhibition of air pouch PGE2 formation” value in the assay on PGE2 (10 mg/Kg) came to 100%.
Take `CS(=O)(=O)c1ccc2c(C(=O)c3ccc(Cl)cc3)c(Cl)ccc2c1` [compound 100]: the IC50 is greater than 100 µM against COX I and 0.25 µM against COX II. The “% Inhibition of air pouch PGE2 formation” value with PGE2 (3 mg/Kg) turned out to be 63%.
On to `CS(=O)(=O)c1ccc2c(C(=O)c3ccccc3F)c(C#N)ccc2c1` [compound 99, 5-(2-fluorobenzoyl)-6-cyano-2-methylsulfonylnaphthalene], for which the figures for the IC50 at COX I and at COX II were greater than 100 µM and 0.5 µM, respectively. Besides, the “% Inhibition of paw edema” value in assay [1] (10 mg/Kg) amounted to 38%. Moreover, the “% Inhibition of air pouch PGE2 formation” value in the assay with PGE2 (3 mg/Kg) came to 86%.
`COc1ccc2cc(S(C)(=O)=O)ccc2c1C(=O)c1ccc(F)cc1` [compound 91, 5-(4-fluorobenzoyl)-6-methoxy-2-methylsulfonylnaphthalene]: the IC50 worked out at 90.8 µM on COX I and 0.92 µM on COX II. In assay [1] (10 mg/Kg), the “% Inhibition of paw edema” value was 29.48%. For the same molecule, in the assay with PGE2 (30 mg/Kg), the “% Inhibition of air pouch PGE2 formation” value came to 58.1%.
For the molecule `CS(=O)(=O)c1ccc2c(C(=O)c3ccc(F)cc3)c(C#N)ccc2c1` [compound 96, 5-(4-fluorobenzoyl)-6-cyano-2-methylsulfonylnaphthalene], the IC50 against COX I was greater than 100 µM; at COX II, 0.8 µM. Further, the “% Inhibition of paw edema” value in assay [1] (30 mg/Kg) stood at 38%. Besides, in the assay on PGE2 (1 mg/Kg), the “% Inhibition of air pouch PGE2 formation” value is listed as 90%.
Regarding `CS(=O)(=O)c1ccc2c(C(=O)c3ccc(Cl)cc3)c(C#N)ccc2c1` [compound 104, 5-(4-chlorobenzoyl)-6-cyano-2-methylsulfonylnaphthalene], the IC50 against COX I stood at 93 µM; against COX II it was 0.57 µM. Moreover, the “% Inhibition of paw edema” value in assay [1] (30 mg/Kg) was found to be 33%. For the same molecule, the “% Inhibition of air pouch PGE2 formation” value with PGE2 (1 mg/Kg) is 76.5%.
Take `COc1ccc2cc(S(N)(=O)=O)ccc2c1C(=O)c1ccccc1Br` [compound 17]: the “% Inhibition of paw edema” value in assay [1] (30 mg/Kg) worked out at 19.56%.
As for `COc1ccc2cc(S(N)(=O)=O)ccc2c1C(=O)c1cccc(F)c1` [compound 15, 5-(3-fluorobenzoyl)-6-methoxy-2-naphthalenesulfonamide], the IC50 against COX I amounted to 62.5 µM; at COX II it was 0.68 µM.
`Cc1ccc2cc(S(N)(=O)=O)ccc2c1C(=O)c1ccc(F)cc1` [compound 65, 5-(4-fluorobenzoyl)-6-methyl-2-naphthalenesulfonamide]: the IC50 stood at 300 µM against COX I and 0.7 µM on COX II. Moreover, the “% Inhibition of paw edema” value in assay [1] (12 mg/Kg) came to 30%. Besides, the “% Inhibition of air pouch PGE2 formation” value with PGE2 (2 mg/Kg) worked out at 50%.
As for `CS(=O)(=O)c1ccc2c(C(=O)c3ccc(F)cc3)cccc2c1` [compound 95, 5-(4-fluorobenzoyl)-2-methylsulfonylnaphthalene], the IC50 on COX I is 1000 µM; at COX II, 2.73 µM. For the same molecule, the “% Inhibition of paw edema” value in assay [1] (30 mg/Kg) came out at 15.5%.

For orientation: IC50 means the concentration needed to halve the response being measured. Low readings indicate greater potency, high ones weaker potency.
